The results in this text go back to patent US8609713B2, “Pyrrole derivatives and their methods of use” (AbbVie Inc., priority 2006, dated 2013).

The structures appear in SMILES notation.

This assay deals with α7 nAChRs (Homo sapiens, UniProt P36544). The assay can be described thus: High-throughput calcium flux (FLIPR) assay using IMR-32 cells expressing endogenous α7 nAChRs.
Sequence of α7 nAChRs (P36544 23-502): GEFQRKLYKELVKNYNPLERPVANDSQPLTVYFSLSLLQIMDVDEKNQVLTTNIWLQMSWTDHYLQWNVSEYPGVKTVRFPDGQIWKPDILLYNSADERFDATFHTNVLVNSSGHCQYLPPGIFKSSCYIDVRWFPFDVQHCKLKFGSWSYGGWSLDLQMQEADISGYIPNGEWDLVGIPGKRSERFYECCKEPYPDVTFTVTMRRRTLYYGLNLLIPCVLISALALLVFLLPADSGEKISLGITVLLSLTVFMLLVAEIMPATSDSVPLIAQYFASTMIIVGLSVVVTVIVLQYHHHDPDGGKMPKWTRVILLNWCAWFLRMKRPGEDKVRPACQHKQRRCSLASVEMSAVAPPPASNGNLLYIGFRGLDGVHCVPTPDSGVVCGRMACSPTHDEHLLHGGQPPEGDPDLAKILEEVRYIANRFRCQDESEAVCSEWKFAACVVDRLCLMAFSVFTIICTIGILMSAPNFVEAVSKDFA

Experimental: (i) High-Throughput Calcium Flux Assays Using Cells Expressing Endogenous α7 nAChRs
Any suitable selective α7 agonist can be used.
IMR-32 neuroblastoma cells (ATCC) were grown to confluency in 162 cm^2 tissue culture flasks in minimum essential media supplemented with 10% FBS and 1 mM sodium puruvate, 0.1 mM non-essential amino acids and 1% antibiotic-antimycotic. The cells were then dissociated using cell dissociation buffer and 40 μl of 3.5×10^5 cells/ml cell suspension was plated (˜15,000 cells/well) into black plates with clear bottom and maintained for 48 hours in a tissue culture incubator at 37° C. under an atmosphere of 5% CO2: 95% air. […] Calcium flux was measured using calcium-3 assay kit (Molecular Devices, Sunnyvale, Calif.) or fluo-4. […] Fluorescence measurements were read simultaneously from all the wells by a Fluorometic Imaging Plate Reader (FLIPR) at an excitation wavelength of 480 nm and an emission wavelength of 520 nm. Baseline fluorescence was measured for the first 10 seconds, at which point 5× concentrations of modulator/test compounds were added to the cell plate and incubated for three minutes. The fluorescence intensity was captured every second for the first 1 minute followed by every 5 seconds for an additional 2 minutes. […]

With `CN1CC2CN(c3ccc(-c4ccccc4)nn3)CC2C1` (centres unmarked), the “calcium response, agonist alone” value (absence of allosteric modulator, FIG. 3) is “did not trigger calcium responses”.

For the compound `CCN1C[C@]2(COC(=O)c3ccccc3N3C(=O)C[C@H](C)C3=O)CC[C@H](OC)[C@@]34[C@@H]5C[C@H]6[C@H](OC)[C@@H]5[C@](O)(C[C@@H]6OC)[C@@](O)([C@@H](OC)[C@H]23)[C@@H]14` [methyllycaconitine], the “effect of α7 selective antagonist on the agonist plus modulator calcium response” value is given as “abolished response”.
